Results as given in patent publication US10059687B2, “Histone demethylase inhibitors” (CELGENE QUANTICEL RESEARCH, INC., priority 2015, dated 2018).

What was measured:
JMJD2C = JMJD2C (Homo sapiens (Human), UniProt Q9H3R0); experiment: In vitro enzyme inhibition assay for JMJD2C activity (TR-FRET); assay type: biochemical
Procedure: This assay determines the ability of a test compound to inhibit JMJD2C demethylase activity. Baculovirus expressed JMJD2C (GenBank Accession #BC143571, AA 2-372) was purchased from BPS Bioscience (Cat#50105).
The ability of test compounds to inhibit the activity of JMJD2C was determined in 384-well plate format under the following reaction conditions: 0.3 nM JMJD2C, 300 nM H3K9me3-biotin labeled peptide (Anaspec cat #64360), 2 μM alpha-ketoglutaric acid in assay buffer of 50 mM HEPES, pH7.3, 0.005% Brij35, 0.5 mM TCEP, 0.2 mg/ml BSA, 50 μM sodium L-ascorbate, and 2 μM ammonium iron(II) sulfate. Reaction product was determined quantitatively by TR-FRET after the addition of detection reagent Phycolink Streptavidin-allophycocyanin (Prozyme) and Europium-anti-di-methylated histone H3 lysine 9 (H3K9me2) antibody (PerkinElmer) in the presence of 5 mM EDTA in LANCE detection buffer (PerkinElmer) at a final concentration of 50 nM and 1 nM, respectively.
(§1) The assay reaction was initiated by the following: 2 μl of the mixture of 900 nM H3K9me3-biotin labeled peptide and 6 μM alpha-ketoglutaric acid with 2 μl of 11-point serial diluted inhibitor in 3% DMSO were added to each well of the plate, followed by the addition of 2 μl of 0.9 nM JMJD2C to initiate the reaction. The reaction mixture was incubated at RT for 30 min, and terminated by the addition of 6 μl of 5 mM EDTA in LANCE detection buffer containing 100 nM Phycolink Streptavidin-allophycocyanin and 2 nM Europium-anti-H3K9me2 antibody. Plates were read by EnVisionMultilabel Reader in TR-FRET mode (excitation at 320 nm, emission at 615 nm and 665 nm) after 1 hr incubation at RT. A ratio was calculated (665/615) for each well and fitted to determine inhibition constant (IC50).

Jarid1B = Jarid1B (Homo sapiens (Human), UniProt Q9UGL1); experiment: In vitro enzyme inhibition assay for Jarid1B activity (TR-FRET); assay type: biochemical
Procedure: The ability of test compounds to inhibit the activity of Jarid1B was determined in 384-well plate format under the following reaction conditions: 0.8 nM Jarid1B, 300 nM H3K4me3-biotin labeled peptide (Anaspec cat #64357), 2 μM alpha-ketoglutaric acid in assay buffer of 50 mM HEPES, pH7.3, 0.005% Brij35, 0.5 mM TCEP, 0.2 mg/ml BSA, 50 μM sodium L-ascorbate, and 2 μM ammonium iron(II) sulfate. Reaction product was determined quantitatively by TR-FRET after the addition of detection reagent Phycolink Streptavidin-allophycocyanin (Prozyme) and Europium-anti-H3K4me or -H3K4me2 antibody (PerkinElmer) in the presence of 5 mM EDTA in LANCE detection buffer (PerkinElmer) at a final concentration of 25 nM and 1 nM, respectively.
as §1, with “nM H3K4me3-biotin” for “nM H3K9me3-biotin”, “DMSO was” for “DMSO were”, “of 2.4” for “of 0.9”, “nM Jarid1B” for “nM JMJD2C”, “containing 50” for “containing 100”, “nM Europium-anti-H3K4me/H3K4me2” for “nM Europium-anti-H3K9me2”

[1] = system: esophageal squamous cell carcinoma KYSE-150 cells; experiment: Cellular IC50 in KYSE-150 cells; assay type: cell-based; conditions: Homo sapiens, one class given per A and B pair
Description: Table 7 provides IC50 values of various compounds disclosed herein, tested in cellular human esophageal squamous cell carcinoma KYSE-150 cells: […]

JMJD3 = JMJD3 (Homo sapiens, UniProt O15054); experiment: In vitro enzyme inhibition assay for JMJD3 activity (TR-FRET); assay type: biochemical
Procedure: This assay determines the ability of a test compound to inhibit JMJD3 demethylase activity. Baculovirus expressed JMJD3 (GenBank Accession #NM-001080424, AA1043-end) was purchased from BPS Bioscience (Cat#50115).
The enzymatic assay of JMJD3 activity is based upon Time Resolved-Fluorescence Resonance Energy Transfer (TR-FRET) detection. The ability of test compounds to inhibit the activity of JMJD3 was determined in 384-well plate format under the following reaction conditions: 5 nM JMJD3, 250 nM H3K27me3-biotin labeled peptide (Anaspec cat #64367), 0.4 to 2 μM α-ketoglutaric acid in assay buffer of 50 mM HEPES, pH7.3, 0.005% Brij35, 0.5 mM TCEP, 0.2 mg/ml BSA, 50 μM sodium L-ascorbate, and 5 μM ammonium iron(II) sulfate. Reaction product was determined quantitatively by TR-FRET after the addition of detection reagent Phycolink Streptavidin-allophycocyanin (Prozyme) and Europium-anti-H3K27me2 antibody (PerkinElmer) in the presence of 5 mM EDTA in LANCE detection buffer (PerkinElmer) at a final concentration of 50 nM and 1 nM, respectively.
The assay reaction was initiated by the following: […] of the mixture of 750 nM H3K27me3-biotin labeled peptide and 1.2 to 6 μM alpha-ketoglutaric acid with 2 μL of 11-point serial diluted inhibitor in 3% DMSO were added to each well of plate, followed by the addition of 2 μl of 15 nM JMJD3 to initiate the reaction. The reaction mixture was incubated at RT for 30 min, and terminated by the addition of 6 μL of 5 mM EDTA in LANCE detection buffer containing 100 nM Phycolink Streptavidin-allophycocyanin and 2 nM Europium-anti-H3K27me2 antibody. Plates were read by EnVisionMultilabel Reader in TR-FRET mode (excitation at 320 nm, emission at 615 nm and 665 nm) after 1 hr incubation at RT. A ratio from the readout of 665/615 was calculated for each well and fitted to determine inhibition constant (IC50).

[2] = Table 4, cell gives A/B enantiomer values
[3] = Table 5, one class given per A and B pair

Chain of Jarid1B (Q9UGL1 whole entry, species assumed): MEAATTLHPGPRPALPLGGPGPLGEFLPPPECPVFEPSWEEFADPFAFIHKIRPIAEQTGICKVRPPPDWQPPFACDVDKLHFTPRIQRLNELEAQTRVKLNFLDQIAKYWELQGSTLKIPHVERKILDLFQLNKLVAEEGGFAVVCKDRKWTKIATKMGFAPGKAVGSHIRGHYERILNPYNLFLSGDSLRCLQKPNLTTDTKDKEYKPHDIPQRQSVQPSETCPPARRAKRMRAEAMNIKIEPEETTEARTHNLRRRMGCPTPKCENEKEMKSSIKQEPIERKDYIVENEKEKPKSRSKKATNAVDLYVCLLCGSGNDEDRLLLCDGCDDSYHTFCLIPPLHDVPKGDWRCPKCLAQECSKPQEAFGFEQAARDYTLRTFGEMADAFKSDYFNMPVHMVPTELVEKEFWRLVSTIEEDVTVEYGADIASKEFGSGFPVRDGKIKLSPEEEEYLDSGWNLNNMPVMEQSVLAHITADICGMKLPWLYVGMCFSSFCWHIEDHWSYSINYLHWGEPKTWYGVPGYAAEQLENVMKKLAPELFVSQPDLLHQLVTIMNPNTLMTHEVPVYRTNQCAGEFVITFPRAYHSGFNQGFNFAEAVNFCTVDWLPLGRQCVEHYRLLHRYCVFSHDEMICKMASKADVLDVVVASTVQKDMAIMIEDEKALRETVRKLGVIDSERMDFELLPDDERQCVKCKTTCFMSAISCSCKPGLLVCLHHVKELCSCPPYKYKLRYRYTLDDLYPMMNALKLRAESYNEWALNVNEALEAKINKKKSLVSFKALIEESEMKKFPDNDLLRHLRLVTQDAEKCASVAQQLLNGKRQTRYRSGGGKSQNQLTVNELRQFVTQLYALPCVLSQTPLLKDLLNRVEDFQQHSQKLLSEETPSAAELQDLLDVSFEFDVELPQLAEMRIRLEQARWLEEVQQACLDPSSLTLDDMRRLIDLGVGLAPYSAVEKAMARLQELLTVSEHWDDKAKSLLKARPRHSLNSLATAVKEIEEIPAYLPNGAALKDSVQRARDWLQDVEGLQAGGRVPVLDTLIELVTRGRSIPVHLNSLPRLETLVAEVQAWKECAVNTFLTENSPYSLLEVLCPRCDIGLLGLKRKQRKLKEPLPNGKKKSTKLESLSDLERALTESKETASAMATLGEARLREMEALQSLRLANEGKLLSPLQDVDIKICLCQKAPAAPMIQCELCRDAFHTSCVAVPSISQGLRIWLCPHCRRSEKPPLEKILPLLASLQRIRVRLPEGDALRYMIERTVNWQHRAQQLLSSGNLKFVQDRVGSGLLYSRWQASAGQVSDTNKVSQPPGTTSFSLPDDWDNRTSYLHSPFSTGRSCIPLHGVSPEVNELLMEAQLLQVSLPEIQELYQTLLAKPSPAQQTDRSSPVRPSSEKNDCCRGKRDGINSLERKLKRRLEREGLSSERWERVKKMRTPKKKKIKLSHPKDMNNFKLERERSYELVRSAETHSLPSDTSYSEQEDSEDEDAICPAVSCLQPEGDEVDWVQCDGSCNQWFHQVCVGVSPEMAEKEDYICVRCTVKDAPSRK
Chain of JMJD2C (Q9H3R0 2-372): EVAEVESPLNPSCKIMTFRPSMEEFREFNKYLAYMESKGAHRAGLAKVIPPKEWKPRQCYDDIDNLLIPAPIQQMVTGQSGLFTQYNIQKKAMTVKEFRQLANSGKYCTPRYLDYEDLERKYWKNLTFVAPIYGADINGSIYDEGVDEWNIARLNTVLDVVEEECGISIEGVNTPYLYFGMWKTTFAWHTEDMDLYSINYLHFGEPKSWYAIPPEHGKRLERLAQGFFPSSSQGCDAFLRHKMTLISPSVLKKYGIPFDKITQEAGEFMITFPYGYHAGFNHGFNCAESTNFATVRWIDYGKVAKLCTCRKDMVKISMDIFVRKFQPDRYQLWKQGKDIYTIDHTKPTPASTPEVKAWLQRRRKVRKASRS

| Structure (SMILES) | IC50 (JMJD2C; [2]) [µM] | IC50 (JMJD2C; [3]) [µM] | IC50 (Jarid1B; [2]) [µM] | IC50 (Jarid1B; [3]) [µM] | IC50 [1] [µM] | IC50 (JMJD3; [2]) [µM] | IC50 (JMJD3; [3]) [µM] |
| --- | --- | --- | --- | --- | --- | --- | --- |
| Cc1ccc(N(C)c2ccc3c(c2)CCN[C@H]3CNc2cnccc2C(=O)O)cc1 [Example 1B, 3-[({(1R)-6-[methyl(4-methylphenyl)amino]-1,2,3,4-tetrahydroisoquinolyl}methyl)amino]pyridine-4-carboxylic acid] | 0.1 to 1 | 0.1 to 1 | ≤ 0.1 | ≤ 0.1 | 1 to 10 | – | – |
| CC(C)c1ccc(N(C)c2ccc3c(c2)CCN[C@H]3CNc2cnccc2C(=O)O)cc1 [Example 3B, 3-{[((1R)-6-{methyl[4-isopropylphenyl]amino}-1,2,3,4-tetrahydroisoquinolyl)methyl]amino}pyridine-4-carboxylic acid] | 0.1 to 1 | 0.1 to 1 | ≤ 0.1 | ≤ 0.1 | ≤ 0.1 | 0.1 to 1 | 0.1 to 1 |
| Cc1cc(OCC2CC2)ccc1-c1ccc2c(c1)CCN[C@@H]2CNc1cnccc1C(=O)O [Example 4A, 3-[({(1S)-6-[4-(cyclopropylmethoxy)-2-methylphenyl]-1,2,3,4-tetrahydro-isoquinolyl}methyl)amino]pyridine-4-carboxylic acid] | 1 to 10 | 0.1 to 1 | ≤ 0.1 | ≤ 0.1 | 0.1 to 1 | 1 to 10 | > 10 |
| Cc1cc(OCC2CC2)ccc1-c1ccc2c(c1)CCN[C@H]2CNc1cnccc1C(=O)O [Example 4B, 3-[({(1R)-6-[4-(cyclopropylmethoxy)-2-methylphenyl]-1,2,3,4-tetrahydro-isoquinolyl}methyl)amino]pyridine-4-carboxylic acid] | 1 to 10 | 0.1 to 1 | ≤ 0.1 | ≤ 0.1 | 0.1 to 1 | > 10 | > 10 |
| Cc1ccc(N(C)c2ccc3c(c2)CN[C@@H]3CNc2cnccc2C(=O)O)cc1 [Example 5A, 3-[({(1S)-5-[methyl(4-tolyl)amino]isoindolinyl}methyl)amino]pyridine-4-carboxylic acid] | – | – | ≤ 0.1 | ≤ 0.1 | 1 to 10 | – | – |
| Cc1ccc(N(C)c2ccc3c(c2)CN[C@H]3CNc2cnccc2C(=O)O)cc1 [Example 5B, 3-[({(1R)-5-[methyl(4-tolyl)amino]isoindolinyl}methyl)amino] pyridine-4-carboxylic acid] | – | – | ≤ 0.1 | ≤ 0.1 | 1 to 10 | – | – |
| CC(C)c1ccc(N(C)c2ccc3c(c2)CN[C@@H]3CNc2cnccc2C(=O)O)cc1 [Example 6A, 3-{[((1S)-5-{methyl[4-isopropylphenyl]amino}isoindolinyl)methyl]amino}pyridine-4-carboxylic acid] | 1 to 10 | 1 to 10 | ≤ 0.1 | ≤ 0.1 | 0.1 to 1 | 1 to 10 | 1 to 10 |
| CC(C)c1ccc(N(C)c2ccc3c(c2)CN[C@H]3CNc2cnccc2C(=O)O)cc1 [Example 6B, 3-{[((1R)-5-{methyl[4-isopropylphenyl]amino}isoindolinyl)methyl]amino}pyridine-4-carboxylic acid] | 1 to 10 | 1 to 10 | ≤ 0.1 | ≤ 0.1 | 0.1 to 1 | > 10 | 1 to 10 |
| Cc1cc(OCC(F)(F)F)ccc1-c1ccc2c(c1)CN[C@@H]2CNc1cnccc1C(=O)O [Example 7A, 3-[({(1S)-5-[2-methyl-4-(2,2,2-trifluoro-ethoxy)phenyl]isoindolinyl}methyl)amino]pyridine-4-carboxylic acid] | 1 to 10 | 1 to 10 | ≤ 0.1 | ≤ 0.1 | 0.1 to 1 | 0.1 to 1 | 1 to 10 |
| Cc1cc(OCC(F)(F)F)ccc1-c1ccc2c(c1)CN[C@H]2CNc1cnccc1C(=O)O [Example 7B, 3-[({(1R)-5-[2-methyl-4-(2,2,2-trifluoro-ethoxy)phenyl]isoindolinyl}methyl)amino] pyridine-4-carboxylic acid] | 1 to 10 | 1 to 10 | ≤ 0.1 | ≤ 0.1 | 0.1 to 1 | 1 to 10 | 1 to 10 |
| CCc1ccccc1-c1ccc2c(c1)CCN(C)[C@H]2CNc1cnccc1C(=O)O [Example 15A, (R)-3-(((6-(2-ethylphenyl)-2-methyl-1,2,3,4-tetrahydroisoquinolin-1-yl)methyl)amino)isonicotinic acid] | – | 0.1 to 1 | – | ≤ 0.1 | – | – | 1 to 10 |
| CCc1ccccc1-c1ccc2c(c1)CCN(C)[C@@H]2CNc1cnccc1C(=O)O [Example 15B, (S)-3-(((6-(2-ethylphenyl)-2-methyl-1,2,3,4-tetrahydroisoquinolin-1-yl)methyl)amino)isonicotinic acid] | – | 0.1 to 1 | – | ≤ 0.1 | – | – | 1 to 10 |
| CC(C)c1ccccc1-c1ccc2c(c1)CCN(C)[C@H]2CNc1cnccc1C(=O)O [Example 16A, (R)-3-(((6-(2-isopropylphenyl)-2-methyl-1,2,3,4-tetrahydroisoquinolin-1-yl)methyl)amino)isonicotinic acid] | – | 1 to 10 | – | ≤ 0.1 | – | – | – |
| CC(C)c1ccccc1-c1ccc2c(c1)CCN(C)[C@@H]2CNc1cnccc1C(=O)O [Example 16B, (S)-3-(((6-(2-isopropylphenyl)-2-methyl-1,2,3,4-tetrahydroisoquinolin-1-yl)methyl)amino)isonicotinic acid] | – | 1 to 10 | – | ≤ 0.1 | – | – | – |
| Cc1cccc(C)c1-c1ccc2c(c1)CCN(C)[C@H]2CNc1cnccc1C(=O)O [Example 17A, (R)-3-(((6-(2,6-dimethylphenyl)-2-methyl-1,2,3,4-tetrahydroisoquinolin-1-yl)methyl)amino)isonicotinic acid] | – | 1 to 10 | – | ≤ 0.1 | – | – | – |
| Cc1cccc(C)c1-c1ccc2c(c1)CCN(C)[C@@H]2CNc1cnccc1C(=O)O [Example 17B, (S)-3-(((6-(2,6-dimethylphenyl)-2-methyl-1,2,3,4-tetrahydroisoquinolin-1-yl)methyl)amino)isonicotinic acid] | – | 1 to 10 | – | ≤ 0.1 | – | – | – |
